According to patent US20230085307A1, “PYRIDAZINONE COMPOUND AND HERBICIDE” (NISSAN CHEMICAL CORPORATION, priority 2019, published 2023):

Assays:
[1] = system: velvetleaf; assay: Test Example 5: herbicidal effect by foliage application, plastic box (Table 20, symbol M); format: in vivo, velvetleaf (Abutilon theophrasti)
Summary of the method: (§1)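 Sow seeds spot-wise in sterilized diluvial soil; cover with ~1.5 cm soil. Grow 14 days in greenhouse, 25° C. to 30° C. Spray foliage with emulsion diluted to predetermined amount. Rate effect after 3 weeks.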

[2] = system: southern crabgrass; assay: Test Example 5: herbicidal effect by foliage application, plastic box (Table 20, symbol F); format: in vivo, southern crabgrass (Digitaria ciliaris)
Summary of the method: as §1

[3] = system: blackgrass; assay: Test Example 5: herbicidal effect by foliage application, plastic box (Table 20, symbol J); format: in vivo, blackgrass (Alopecurus myosuroides)
Summary of the method: as §1

[4] = system: barnyard grass; assay: Test Example 4: herbicidal effect by soil treatment (Table 19, symbol H); format: in vivo, barnyard grass (Echinochloa crus-galli); conditions: 294 g/ha
Summary of the method: (§2)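 Applied as a water-diluted emulsion, the compound was sprayed onto soil covering newly sown seeds. Evaluation came three weeks after application, in a greenhouse held at 25° C. to 30° C.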

[5] = system: redroot pigweed; assay: Test Example 4: herbicidal effect by soil treatment (Table 19, symbol N); format: in vivo, redroot pigweed (Amaranthus retroflexus); conditions: 294 g/ha
Summary of the method: as §2

[6] = system: Chinese sprangletop; assay: Test Example 3: herbicidal effect by foliage application, Wagner pot (Table 18, symbol D); format: in vivo, chinese sprangletop (Leptochloa chinensis)
Summary of the method: (§3)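 Plants were sown in alluvial soil held under 0.1–0.5 cm standing water and grown 14 days in a greenhouse at 25–30 °C. An emulsifiable formulation, water-diluted to the set dose, was then sprayed onto the foliage, and effects were scored three weeks later using previously defined criteria.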

[7] = system: persian speedwell; assay: Test Example 5: herbicidal effect by foliage application, plastic box (Table 20, symbol R); format: in vivo, Persian speedwell (Veronica persica)
Summary of the method: as §1

[8] = system: wild oat; assay: Test Example 5: herbicidal effect by foliage application, plastic box (Table 20, symbol I); format: in vivo, wild oat (Avena fatua)
Summary of the method: as §1

[9] = system: barnyard grass; assay: Test Example 5: herbicidal effect by foliage application, plastic box (Table 20, symbol H); format: in vivo, barnyard grass (Echinochloa crus-galli)
Summary of the method: as §1

[10] = system: windgrass; assay: Test Example 4: herbicidal effect by soil treatment (Table 19, symbol L); format: in vivo, windgrass (Apera spica-venti); conditions: 294 g/ha
Summary of the method: as §2

[11] = system: chickweed; assay: Test Example 4: herbicidal effect by soil treatment (Table 19, symbol P); format: in vivo, common chickweed (Stellaria media); conditions: 294 g/ha
Summary of the method: as §2

[12] = system: green foxtail; assay: Test Example 5: herbicidal effect by foliage application, plastic box (Table 20, symbol G); format: in vivo, green foxtail (Setaria viridis)
Summary of the method: as §1

[13] = system: windgrass; assay: Test Example 5: herbicidal effect by foliage application, plastic box (Table 20, symbol L); format: in vivo, windgrass (Apera spica-venti)
Summary of the method: as §1

[14] = system: rice flat sedge; assay: Test Example 3: herbicidal effect by foliage application, Wagner pot (Table 18, symbol E); format: in vivo, rice flat sedge (Cyperus iria)
Summary of the method: as §3

[15] = system: Italian ryegrass; assay: Test Example 5: herbicidal effect by foliage application, plastic box (Table 20, symbol K); format: in vivo, Italian ryegrass (Lolium multiflorum)
Summary of the method: as §1

[16] = system: southern crabgrass; assay: Test Example 4: herbicidal effect by soil treatment (Table 19, symbol F); format: in vivo, southern crabgrass (Digitaria ciliaris); conditions: 294 g/ha
Summary of the method: as §2

[17] = system: velvetleaf; assay: Test Example 4: herbicidal effect by soil treatment (Table 19, symbol M); format: in vivo, velvetleaf (Abutilon theophrasti); conditions: 294 g/ha
Summary of the method: as §2

[18] = system: green foxtail; assay: Test Example 4: herbicidal effect by soil treatment (Table 19, symbol G); format: in vivo, green foxtail (Setaria viridis); conditions: 294 g/ha
Summary of the method: as §2

[19] = system: lambsquarters; assay: Test Example 5: herbicidal effect by foliage application, plastic box (Table 20, symbol O); format: in vivo, lambsquarters (Chenopodium album)
Summary of the method: as §1

[20] = system: Italian ryegrass; assay: Test Example 4: herbicidal effect by soil treatment (Table 19, symbol K); format: in vivo, Italian ryegrass (Lolium multiflorum); conditions: 294 g/ha
Summary of the method: as §2

[21] = system: wild oat; assay: Test Example 4: herbicidal effect by soil treatment (Table 19, symbol I); format: in vivo, wild oat (Avena fatua); conditions: 294 g/ha
Summary of the method: as §2

[22] = system: barnyard grass; assay: Test Example 3: herbicidal effect by foliage application, Wagner pot (Table 18, symbol H); format: in vivo, barnyard grass (Echinochloa crus-galli)
Summary of the method: as §3

[23] = system: false cleavers; assay: Test Example 5: herbicidal effect by foliage application, plastic box (Table 20, symbol Q); format: in vivo, false cleavers (Galium spurium)
Summary of the method: as §1

[24] = system: blackgrass; assay: Test Example 4: herbicidal effect by soil treatment (Table 19, symbol J); format: in vivo, blackgrass (Alopecurus myosuroides); conditions: 294 g/ha
Summary of the method: as §2

[25] = system: lambsquarters; assay: Test Example 4: herbicidal effect by soil treatment (Table 19, symbol O); format: in vivo, lambsquarters (Chenopodium album); conditions: 294 g/ha
Summary of the method: as §2

[26] = system: persian speedwell; assay: Test Example 4: herbicidal effect by soil treatment (Table 19, symbol R); format: in vivo, Persian speedwell (Veronica persica); conditions: 294 g/ha
Summary of the method: as §2

[27] = system: redroot pigweed; assay: Test Example 5: herbicidal effect by foliage application, plastic box (Table 20, symbol N); format: in vivo, redroot pigweed (Amaranthus retroflexus); conditions: 320 g/ha, foliage application after 14-day growth, evaluated three weeks after application
Summary of the method: as §1

[28] = system: chickweed; assay: Test Example 5: herbicidal effect by foliage application, plastic box (Table 20, symbol P); format: in vivo, common chickweed (Stellaria media); conditions: 320 g/ha, foliage application after 14-day growth, evaluated three weeks after application
Summary of the method: as §1

[29] = foliage application, 294 g/ha, 3 weeks after application
[30] = 320 g/ha, foliage application after 14-day growth, evaluated three weeks after application

Compound: COc1ccccc1-c1sc2ccc(F)cc2c1-c1c(O)c(C)nn(C)c1=O [2-024]
- effect on velvetleaf (M) [1, 29]: 5 (Herbicidal rate of 90% or more (almost completely withered))
- effect on southern crabgrass (F) [2, 29]: 3 (Herbicidal rate of 40% or more and less than 70%)
- effect on blackgrass (J) [3, 29]: 5 (Herbicidal rate of 90% or more (almost completely withered))
- herbicidal effect rating, H: barnyard grass [4]: 1 (Herbicidal rate of 5% or more and less than 20%)
- herbicidal effect rating, N: redroot pigweed [5]: 5 (Herbicidal rate of 90% or more (almost completely withered))
- herbicidal effect on D (Chinese sprangletop), rating 0-5 ([6]; 294 g/ha): 3 (Herbicidal rate of 40% or more and less than 70%)
- effect on persian speedwell (R) [7, 29]: 5 (Herbicidal rate of 90% or more (almost completely withered))
- effect on wild oat (I) [8, 29]: 4 (Herbicidal rate of 70% or more and less than 90%)
- effect on barnyard grass (H) [9, 29]: 5 (Herbicidal rate of 90% or more (almost completely withered))
- herbicidal effect rating, L: windgrass [10]: 0 (Herbicidal rate of 5% or less (almost no effect))
- herbicidal effect rating, P: chickweed [11]: 3 (Herbicidal rate of 40% or more and less than 70%)
- effect on green foxtail (G) [12, 29]: 4 (Herbicidal rate of 70% or more and less than 90%)
- effect on windgrass (L) [13, 29]: 4 (Herbicidal rate of 70% or more and less than 90%)
- herbicidal effect on E (rice flat sedge), rating 0-5 ([14]; 294 g/ha): 4 (Herbicidal rate of 70% or more and less than 90%)
- effect on Italian ryegrass (K) [15, 29]: 3 (Herbicidal rate of 40% or more and less than 70%)
- herbicidal effect rating, F: southern crabgrass [16]: 3 (Herbicidal rate of 40% or more and less than 70%)
- herbicidal effect rating, M: velvetleaf [17]: 2 (Herbicidal rate of 20% or more and less than 40%)
- herbicidal effect rating, G: green foxtail [18]: 3 (Herbicidal rate of 40% or more and less than 70%)
- effect on lambsquarters (O) [19, 29]: 5 (Herbicidal rate of 90% or more (almost completely withered))
- herbicidal effect rating, K: Italian ryegrass [20]: 0 (Herbicidal rate of 5% or less (almost no effect))
- herbicidal effect rating, I: wild oat [21]: 0 (Herbicidal rate of 5% or less (almost no effect))
- herbicidal effect on H (barnyard grass), rating 0-5 ([22]; 294 g/ha): 4 (Herbicidal rate of 70% or more and less than 90%)
- effect on false cleavers (Q) [23, 29]: 5 (Herbicidal rate of 90% or more (almost completely withered))
- herbicidal effect rating, J: blackgrass [24]: 2 (Herbicidal rate of 20% or more and less than 40%)
- herbicidal effect rating, O: lambsquarters [25]: 5 (Herbicidal rate of 90% or more (almost completely withered))
- herbicidal effect rating, R: persian speedwell [26]: 4 (Herbicidal rate of 70% or more and less than 90%)

Compound: CCCC(=O)Oc1c(C)nn(C)c(=O)c1-c1c(-c2ccc(C(F)(F)F)cc2)sc2cc(Cl)ccc12 [3-146]
- herbicidal effect on M: velvetleaf (evaluation grade 0-5) [1, 30]: 0 (Herbicidal rate of 5% or less (almost no effect))
- herbicidal effect on F: southern crabgrass (evaluation grade 0-5) [2, 30]: 1 (Herbicidal rate of 5% or more and less than 20%)
- herbicidal effect on N: redroot pigweed (evaluation grade 0-5) [27]: 3 (Herbicidal rate of 40% or more and less than 70%)
- herbicidal effect on J: blackgrass (evaluation grade 0-5) [3, 30]: 0 (Herbicidal rate of 5% or less (almost no effect))
- herbicidal effect on Chinese sprangletop (D) ([6]; 320 g/ha): 3 (Herbicidal rate of 40% or more and less than 70%)
- herbicidal effect on R: persian speedwell (evaluation grade 0-5) [7, 30]: 4 (Herbicidal rate of 70% or more and less than 90%)
- herbicidal effect on I: wild oat (evaluation grade 0-5) [8, 30]: 0 (Herbicidal rate of 5% or less (almost no effect))
- herbicidal effect on H: barnyard grass (evaluation grade 0-5) [9, 30]: 0 (Herbicidal rate of 5% or less (almost no effect))
- herbicidal effect on G: green foxtail (evaluation grade 0-5) [12, 30]: 2 (Herbicidal rate of 20% or more and less than 40%)
- herbicidal effect on L: windgrass (evaluation grade 0-5) [13, 30]: 0 (Herbicidal rate of 5% or less (almost no effect))
- herbicidal effect on rice flat sedge (E) ([14]; 320 g/ha): 3 (Herbicidal rate of 40% or more and less than 70%)
- herbicidal effect on K: Italian ryegrass (evaluation grade 0-5) [15, 30]: 0 (Herbicidal rate of 5% or less (almost no effect))
- herbicidal effect on O: lambsquarters (evaluation grade 0-5) [19, 30]: 3 (Herbicidal rate of 40% or more and less than 70%)
- herbicidal effect on barnyard grass (H) ([22]; 320 g/ha): 3 (Herbicidal rate of 40% or more and less than 70%)
- herbicidal effect on Q: false cleavers (evaluation grade 0-5) [23, 30]: 1 (Herbicidal rate of 5% or more and less than 20%)
- herbicidal effect on P: chickweed (evaluation grade 0-5) [28]: 5 (Herbicidal rate of 90% or more (almost completely withered))
